Our source for the Km and kcat values is patent publication US6309872A, “Polypeptides having glucoamylase activity and nucleic acids encoding same” (Novozymes Biotech, Inc, priority 2000, dated 2001).

The structures appear in SMILES notation.

The target of assay [1] is T1, Thielavia terrestris ATCC 20627 glucoamylase, wild type, recombinant (expressed in Aspergillus oryzae), SEQ ID NO:2 (Thermothielavioides terrestris, UniProt G2QUZ8).
T1 construct: N-terminus identical to native enzyme
The assay is described as follows: Catalytic constants of recombinant Thielavia terrestris glucoamylase, maltotriose hydrolysis (glucose oxidase assay). The class given is biochemical.
Description: The glucose-releasing activity of glucoamylase (on maltooligosaccharide) was measured using a glucose oxidase assay kit (Sigma Chemical Co., St. Louis, Mo.) according to the manufacturer's instructions. […] To obtain the correct glucoamylase activity, glucoamylase samples were subjected to ultrafiltration and the resulting retentate (glucoamylase enriched) and filtrate (containing no glucoamylase) were assayed by the glucose oxidase kit. The background substrate oxidation was then subtracted from the data obtained for the glucoamylase samples. Another glucoamylase activity assay comprised of glucoamylase hydrolysis on maltose and glucose detection by a Glucose GOD-Perid kit (Boehringer Mannheim, Indianapolis, Ind.) according to the manufacturer's instructions. In this assay, 900 µl of 50 mM sodium acetate, pH 4.3, containing 1% maltose, pre-incubated for 5 minutes at 37° C., was mixed with 20 μl of glucoamylase solution in 50 mM sodium acetate pH 4.3. After a 10 minute incubation, 80 μl of 1 M NaOH was added to inactivate glucoamylase and the mixture was chilled on ice to prevent the non-enzymatic, basic hydrolysis of maltose. A 20 μl volume of the solution was then mixed with 200 μl of GOD-Perid solution. After a 30 minute incubation at room temperature, the absorbance at 650 nm was measured. The Prism program (from GraphPad, San Diego, Calif.) was used to calculate Km and Vmax by non-linear regression. The parameter kcat (mole glucose produced per mole glucoamylase per min) was calculated by kcat ={(Vmax +1.01)/0.30}/[enzyme], where the units were 0.001 Abs /minute for Vmax and μM for [enzyme]. The 124 mM^-1 cm^-1 value, calculated from the amount of tyrosine, phenylalanine, and cysteine as deduced from the DNA sequence, was used for the extinction coefficient of Thielavia terrestris glucoamylase at 280 nm.
Then 50 μl of Sigma's GO glucose oxidase assay reagent and 25 μl of H2 O were added and the absorption change was monitored at 490 nm.
The temperature-activity profile was measured in quadruplicate at 4, 22, 30, 37, 50, 60, 70, and 80° C. […] After 30 minutes, 5 μl Thielavia terrestris glucoamylase stock (0.11 mg/ml) was added and the solution was kept at the same temperature. After 20 minutes, the solutions were chilled (in ice-water) and briefly centrifuged (in 0.7-ml microcentrifuge tubes). Then 25 μl of these solutions were subjected to the glucoamylase assay by mixing with 50 μl of glucose oxidase reagent and 25 μl of H2 O as described above.

Assay [2] has as its system Trichoderma reesei glucoamylase. The conditions noted are these: Fagerstrom and Kalkkinen, 1995, cited from earlier work.
Assay [3] has as its target Aspergillus awamori glucoamylase (Aspergillus awamori, UniProt P69327). The conditions noted are these: Sierks and Svensson, 1993, cited from earlier work.
In assay [4] the test system is Aspergillus spp K-27 glucoamylase. As to conditions: Abe et al., 1990, cited from earlier work.

T1 sequence (G2QUZ8 20-638): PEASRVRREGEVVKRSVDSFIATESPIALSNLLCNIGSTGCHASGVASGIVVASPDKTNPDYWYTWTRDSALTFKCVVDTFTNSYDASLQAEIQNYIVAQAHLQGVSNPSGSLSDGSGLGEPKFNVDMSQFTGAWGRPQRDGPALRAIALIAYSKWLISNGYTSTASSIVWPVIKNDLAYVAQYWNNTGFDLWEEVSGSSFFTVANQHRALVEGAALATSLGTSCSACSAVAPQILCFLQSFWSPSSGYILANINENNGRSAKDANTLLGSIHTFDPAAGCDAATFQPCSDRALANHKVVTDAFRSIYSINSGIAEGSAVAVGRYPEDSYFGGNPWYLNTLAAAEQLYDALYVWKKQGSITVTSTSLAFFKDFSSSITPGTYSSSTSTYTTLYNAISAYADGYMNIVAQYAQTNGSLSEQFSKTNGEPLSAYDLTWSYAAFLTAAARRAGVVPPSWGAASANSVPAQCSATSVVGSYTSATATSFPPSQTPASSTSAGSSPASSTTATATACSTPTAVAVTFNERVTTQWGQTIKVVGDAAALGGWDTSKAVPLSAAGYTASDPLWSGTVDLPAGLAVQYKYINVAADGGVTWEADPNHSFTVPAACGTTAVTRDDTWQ
Sequence of Aspergillus awamori glucoamylase (P69327 25-640): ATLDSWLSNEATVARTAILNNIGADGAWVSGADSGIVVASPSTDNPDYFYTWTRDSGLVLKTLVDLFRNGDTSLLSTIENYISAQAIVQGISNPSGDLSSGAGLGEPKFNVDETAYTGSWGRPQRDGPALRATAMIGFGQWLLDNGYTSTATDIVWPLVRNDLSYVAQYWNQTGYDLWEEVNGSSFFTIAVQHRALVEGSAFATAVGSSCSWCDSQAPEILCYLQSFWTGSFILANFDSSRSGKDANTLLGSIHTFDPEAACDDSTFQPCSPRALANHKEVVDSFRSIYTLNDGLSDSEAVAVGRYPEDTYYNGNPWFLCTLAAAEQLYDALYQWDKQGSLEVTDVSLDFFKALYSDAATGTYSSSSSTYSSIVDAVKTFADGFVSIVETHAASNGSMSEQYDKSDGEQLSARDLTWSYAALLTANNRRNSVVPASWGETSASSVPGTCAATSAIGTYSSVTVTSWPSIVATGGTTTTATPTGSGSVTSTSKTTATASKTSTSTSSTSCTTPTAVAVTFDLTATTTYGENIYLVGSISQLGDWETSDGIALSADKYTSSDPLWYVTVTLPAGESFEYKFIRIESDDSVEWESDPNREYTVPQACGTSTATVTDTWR

Turning to `OC[C@H]1O[C@H](O[C@H]2[C@H](O)[C@@H](O)[C@@H](O[C@H]3[C@H](O)[C@@H](O)C(O)O[C@@H]3CO)O[C@@H]2CO)[C@H](O)[C@@H](O)[C@@H]1O` (stereo partly shown) [maltotriose], the Km – broadly, the concentration of substrate that gives half-maximal velocity – is less than 1000 µM in assay [1] (at pH 4 from 4° C. to 80° C.); less than 1000 µM in assay [1] (from pH 3 to 11 at 20° C.); 500 µM in assay [2] (read-out: Km for maltotriose); 730 µM in assay [3] (read-out: Km for maltotriose); 450 µM in assay [4] (read-out: Km for maltotriose). Moreover, the kcat (commonly the number of substrate molecules converted per active site and unit of time at saturation) is > 10^5 /min in assay [1] (at pH 4 from 40° C. to 70° C.); > 10^5 /min in assay [1] (from pH 3 to 7 at 20° C.); 20 s⁻¹ in assay [2] (maltotriose); 61.67 s⁻¹ in assay [3] (maltotriose); 65 s⁻¹ in assay [4] (maltotriose).
